According to patent US20110288101A1, “SURGICAL CO[…]-RECEPTOR AGONISTS” (ALCON RESEARCH, LTD., priority 2010, published 2011):

Test system: rabbit corneal endothelial cells
Assay: MTS cell viability assay, protection against hydrogen peroxide oxidative stress
Format: cell-based
Conditions: rabbit corneal endothelial cells in serum-free medium; 70 μM H2O2; 24 hours; 1 to 300 μM (+)-pentazocine; p<0.05 vs H2O2 control; FIG. 1
Protocol: Studies were performed to determine whether (+)-pentazocine can protect corneal endothelial cells. Hydrogen peroxide was employed to produce oxidative stress to rabbit corneal endothelial cells in vitro.
Briefly, rabbit corneal endothelial cells maintained in serum-free medium were treated with the sigma-1 receptor agonist (+)-pentazocine and 70 μM H2O2 for 24 hours. At the end point, a cell viability assay (MTS assay) is performed. The MTS assay is a laboratory test and standard colorimetric assay for measuring the activity of enzymes that reduce MTS+PMS to formazan, producing a purple color. MTS (3-(4,5-dimethylthiazol-2-yl)-5-(3-carboxymethoxyphenyl)-2-(4-sulfophenyl)-2H-tetrazolium), in the presence of phenazine methosulfate (PMS), produces a water-soluble formazan product that has an absorbance maximum at 490-500 nm in phosphate-buffered saline. These reduction reactions take place only when reductase enzymes are active, and the production of formazan product is therefore used as a measure of cell viability.
Lower absorbance numbers correlate to reduced cell viability.

With `CC(C)=CCN1CCC2(C)c3cc(O)ccc3CC1C2C` (single isomer, unassigned; (+)) [(+)-pentazocine] the “protection of cell viability (MTS absorbance) against damage induced by hydrogen peroxide” value was “dose-dependent protection”.
